In experiment [1] the target is BCL2 WT (Homo sapiens (Human), UniProt P10415). Nature of the experiment: TR-FRET competitive binding assay, BCL2 WT. As to conditions: Ki determined from IC50, read-out: TR_FRET EKI_Bcl2 WT. The method, boiled down: (§1)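 Competitive TR-FRET displacement of fluorescein-PUMA peptide (2 or 20 nM) from 0.5 nM terbium-labelled N-terminal Halo-fusion BCL2 (1-207, wild type or mutant) or BCLXL (2-196), expressed in E. coli. Buffer 50 mM Hepes pH 7.5, 150 mM NaCl, 5% DMSO; 2 h at 23°C. 520/495 nm ratio fitted over 11 points for IC50, converted to Ki.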
On the technique in general: TR-FRET usually uses a lanthanide donor and a delayed reading to cut background.

For experiment [2], the target named is BCL2 G101V (Homo sapiens, UniProt P10415, G101V). Nature of the experiment: TR-FRET competitive binding assay, BCL2 G101V. As to conditions: BCL2 G101V; Ki determined from IC50; read-out: TR_FRET EKI_Bcl2 G101V. The method in brief: as §1
Experiment [3] has as its system BCL2 G101V. Put plainly: TR-FRET competitive binding assay, BCL2 G101V. The note with it: ratio Ki BCL2 G101V / Ki BCL2 WT. Further details: species or system human. The method, boiled down: as §1
The target in experiment [4] is BCL2 D103Y (Homo sapiens, UniProt P10415, D103Y). Nature of the experiment: TR-FRET competitive binding assay, BCL2 D103Y. The note with it: Ki determined from IC50, read-out: TR_FRET EKI_Bcl2 D103Y. The method, boiled down:
as §1

Experiment [5] has as its target BCL2 F104I (Homo sapiens, UniProt P10415, F104I). Nature of the experiment: TR-FRET competitive binding assay, BCL2 F104I. The note with it: Ki determined from IC50, read-out: TR_FRET EKI_Bcl2 F104I. The method, boiled down: as §1
Experiment [6] addresses BCL2 D111A (Homo sapiens, UniProt P10415, D111A). Put plainly: TR-FRET competitive binding assay, BCL2 D111A. As to conditions: Ki determined from IC50, read-out: TR_FRET EKI_Bcl2 D111A. How it is done: The relative binding potency of each compound was determined in a competitive binding assay using time resolved-fluorescence resonance energy transfer (TR-FRET). The method utilised a fluorescein labelled peptide derived from PUMA (5Flu-Ahx-[…]-NH2 wherein Ahx means 6-hexanoic acid monomer and the amino acid sequence is referred to as SEQ ID:01) which binds to a terbium labelled BCL2 or BCLXL protein. The degree of binding or corresponding compound inhibition can be quantified by the TR-FRET signal between the terbium donor and fluorescein acceptor.
The human BCL2_wild-type (also named BCL2_wt), BCL2_G101V mutant and BCLXL_wild-type were E. coli expressed as a N-terminal Halo-fusion proteins and singly labelled with Terbium on the Halo protein to afford the following amino acid sequences:
wherein the BCL2(1-207) sequence corresponds to UniProtKB® primary accession number P10415 and the BCLXL(2-196) sequence corresponds to UniProtKB® primary accession number Q07817-1.
The assay was performed in a 40 μL volume in white 384-standard well plates (Corning #3574). An 11-point serial dilution of each compound was prepared in DMSO and transferred directly to plate followed by addition of fluorescein labelled peptide and lastly protein. Final assay conditions were 0.5 nM BCL2_wt, BCL2_G101V, BCL2_D103Y, BCL2_F104I, BCL2_D111A or BCLXL_wt, 2 or 20 nM fluorescein labelled peptide, 50 mM Hepes pH 7.5, 150 mM NaCl, 0.5 mM TCEP (Tris(2-carboxyethyl)phosphine), 0.05% Tween 20, 5% DMSO. The mixture was incubated for 2 hours at 23° C.
TR-FRET measurements were performed on a Biotek Synergy Neo plate reader. TR-FRET was measured by excitation of the Terbium-donor at 340 nm and subsequent (delay time 100 μs) measurement of terbium and fluorescein emission at 495 nm and 520 nm, respectively, over a collection time of 300 μs. The TR-FRET signal was calculated as the emission-ratio at 520 nm over 495 nm.
The TR-FRET ratio readout for test compounds was normalized against 0% inhibition controls wells and 100% inhibition control wells. Test compound potency (IC50) was estimated by nonlinear regression using the sigmoidal dose-response (variable slope) using Xlfit 4 (IDBS, Guildford, Surrey, UK, model 205). Were the IC50 could not be determined the % inhibition at the highest tested concentration is given.
y=(A+((B−A)/(1+((C/x)^D))))
where y is the normalized TR-TRET ratio measurement for a given concentration of test compound, x is the concentration of test compound, A is the estimated efficacy (% inhibition) at infinite compound dilution, and B is the maximal efficacy (% inhibition). C is the IC50 value and D is the Hill slope coefficient.
The K1 values were determined from the IC50 values according to Cer et al, Nucleic Acids Res, 2009, July 1; 37 (WebServer issue): W441-W445.

The target of experiment [7] is BCLXL WT (Homo sapiens (Human), UniProt Q07817). Nature of the experiment: TR-FRET competitive binding assay, BCLXL WT. As to conditions: for Ki: BCLXL WT, Ki determined from IC50, read-out: TR_FRET EKI BclxL; for TR_FRET EKI BCLxL/WT selectivty ratio: ratio Ki BCLxL / Ki BCL2 WT. The method, boiled down:
as §1

For experiment [8], the system named is KMS-12-PE Bcl-2 WT. Put plainly: In vitro cytotoxicity CellTiter-Glo 48 h, KMS-12-PE Bcl-2 WT. Type of experiment: cell-based. As to conditions: Homo sapiens, KMS-12-PE, C50 = concentration needed to reach 50% of the cellular viability. The method in brief: (§2)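 Bcl-2 WT- and G101V-expressing KMS-12-PE cells; 48 h treatment at 37 °C, 5% CO2; CellTiter-Glo ATP luminescence; C50 from 11-point curves.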

For experiment [9], the system named is KMS-12-PE Bcl-2 G101V. Nature of the experiment: In vitro cytotoxicity CellTiter-Glo 48 h, KMS-12-PE Bcl-2 G101V. The experiment is classed as cell-based. As to conditions: for Ratio (G101V/WT): C50 KMS-12-PE Bcl-2 G101V over C50 KMS-12-PE Bcl-2 WT; for IC50: Homo sapiens, KMS-12-PE, 48 h, CellTiter-Glo, C50 = concentration needed to reach 50% of the cellular viability. The method, boiled down:
as §2
In general terms: ATP-based viability assays read luminescence as a measure of living cells.

BCLXL WT, sequence (Q07817 other isoform, or with tags, fused parts or gaps): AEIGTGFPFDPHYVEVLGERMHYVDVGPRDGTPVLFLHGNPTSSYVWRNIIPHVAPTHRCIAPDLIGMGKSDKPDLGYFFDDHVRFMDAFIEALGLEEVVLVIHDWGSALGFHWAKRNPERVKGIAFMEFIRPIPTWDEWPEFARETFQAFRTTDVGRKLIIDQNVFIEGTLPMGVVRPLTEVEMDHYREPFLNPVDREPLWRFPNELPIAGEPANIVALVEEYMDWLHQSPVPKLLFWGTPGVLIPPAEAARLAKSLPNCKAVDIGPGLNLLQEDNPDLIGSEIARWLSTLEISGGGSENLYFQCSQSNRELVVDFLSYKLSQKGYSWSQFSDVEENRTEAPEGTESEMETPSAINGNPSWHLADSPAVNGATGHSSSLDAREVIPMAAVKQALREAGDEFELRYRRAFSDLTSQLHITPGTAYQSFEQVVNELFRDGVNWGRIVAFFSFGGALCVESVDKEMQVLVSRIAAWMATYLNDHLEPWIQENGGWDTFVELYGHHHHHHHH

Usually IC50 stands for the concentration that gives 50% inhibition. For `Cc1c(N(C(=O)c2cc(-c3cc4c(cc3C(=O)N3Cc5ccccc5C[C@H]3C)CN(C(=O)Cc3ccc(OCCN5CCC(O)CC5)cc3)CC4)n(C)c2C)c2ccc(O)cc2)cc(C#N)n1C` [Example 30, N-(5-cyano-1,2-dimethyl-1H-pyrrol-3-yl)-N-(4-hydroxyphenyl)-5-[2-(2-{4-[2-(4-hydroxypiperidin-1-yl)ethoxy]phenyl}acetyl)-7-[(3R)-3-methyl-1,2,3,4-tetrahydroisoquinoline-2-carbonyl]-1,2,3,4-tetrahydroisoquinolin-6-yl]-1,2-dimethyl-1H-pyrrole-3-carboxamide], the Ki in experiment [1] is 0.1 nM; in experiment [2], 0.2 nM; in experiment [4], 0.19 nM; in experiment [5], 0.26 nM; in [6] it was 0.12 nM; in [7] it was 1.1 nM. The “TR_FRET EKI G101V/WT selectivty ratio” value in [3] is listed as 1.9. The “TR_FRET EKI BCLxL/WT selectivty ratio” value in experiment [7] was found to be 11.6. The concentration for half-maximal inhibition (IC50) in experiment [8] is 0.0191 µM; in experiment [9], 0.0909 µM. Also, the “Ratio (G101V/WT)” value in experiment [9] is 4.76.

In the case of `Cc1c(N(C(=O)c2cc(-c3cc4c(cc3C(=O)N3Cc5ccccc5C[C@H]3CN3CCCCC3)CN(C(=O)Cc3ccc(OCCN5CCOC(C)C5)cc3F)CC4)n(C)c2C)c2ccc(O)cc2)cc(C#N)n1C` (single isomer, unassigned) [Example 108, N-(5-cyano-1,2-dimethyl-1H-pyrrol-3-yl)-5-[2-(2-{2-fluoro-4-[2-((2S or R)-2-methylmorpholin-4-yl)ethoxy]phenyl}acetyl)-7-[(3S)-3-[(piperidin-1-yl)methyl]-1,2,3,4-tetrahydroisoquinoline-2-carbonyl]-1,2,3,4-tetrahydroisoquinolin-6-yl]-N-(4-hydroxyphenyl)-1,2-dimethyl-1H-pyrrole-3-carboxamide], the Ki in experiment [1] worked out at 0.07 nM; in experiment [2], 0.4 nM; in experiment [4], 0.14 nM; in experiment [5], 0.19 nM; in experiment [6], 0.16 nM; in experiment [7], 2.1 nM. In addition, the “TR_FRET EKI G101V/WT selectivty ratio” value in experiment [3] is 5.1. In addition, in experiment [7], the “TR_FRET EKI BCLxL/WT selectivty ratio” value is 30.9. In addition, the values for the half-maximal inhibitory concentration (IC50) in [8] and in [9] were 0.0066 µM and 0.0383 µM, respectively. Besides, the “Ratio (G101V/WT)” value in experiment [9] was found to be 5.85.

On to `Cc1c(N(C(=O)c2cc(-c3cc4c(cc3C(=O)N3Cc5ccccc5C[C@H]3C)CN(C(=O)Cc3ccc(OCCN5CCN(CC(F)F)CC5)cc3)CC4)n(C)c2C)c2ccc(O)cc2)cc(C#N)n1C` [Example 47, N-(5-cyano-1,2-dimethyl-1H-pyrrol-3-yl)-5-{2-[2-(4-{2-[4-(2,2-difluoroethyl)piperazin-1-yl]ethoxy}phenyl)acetyl]-7-[(3R)-3-methyl-1,2,3,4-tetrahydroisoquinoline-2-carbonyl]-1,2,3,4-tetrahydroisoquinolin-6-yl}-N-(4-hydroxyphenyl)-1,2-dimethyl-1H-pyrrole-3-carboxamide], for which the Ki was determined as 0.11 nM in [1]; 0.2 nM in [2]; 0.24 nM in [4]; 0.46 nM in experiment [5]; 0.16 nM in experiment [6]; 2 nM in [7]. Also, the “TR_FRET EKI G101V/WT selectivty ratio” value in [3] worked out at 2.0. The “TR_FRET EKI BCLxL/WT selectivty ratio” value in [7] was 18.9. In addition, the IC50 was determined as 0.008 µM in experiment [8] and 0.0362 µM in experiment [9]. Besides, in experiment [9], the “Ratio (G101V/WT)” value came to 4.5.

For the molecule `Cc1c(N(C(=O)c2cc(-c3cc4c(cc3C(=O)N3Cc5ccccc5C[C@H]3CN3CCCCC3)CN(C(=O)Cc3ccc(OCCN(C)C5CC5)cc3)CC4)n(C)c2C)c2ccc(O)cc2)cc(C#N)n1C` [Example 102, N-(5-cyano-1,2-dimethyl-1H-pyrrol-3-yl)-5-{2-[2-(4-{2-[cyclopropyl(methyl)amino]ethoxy}phenyl)acetyl]-7-[(3S)-3-[(piperidin-1-yl)methyl]-1,2,3,4-tetrahydroisoquinoline-2-carbonyl]-1,2,3,4-tetrahydroisoquinolin-6-yl}-N-(4-hydroxyphenyl)-1,2-dimethyl-1H-pyrrole-3-carboxamide], the Ki turned out to be 0.06 nM in experiment [1]; 0.4 nM in experiment [2]; 0.21 nM in experiment [4]; 0.73 nM in experiment [5]; 0.24 nM in [6]; 2.8 nM in experiment [7]. Also, in [3], the “TR_FRET EKI G101V/WT selectivty ratio” value is 6.5. Further, the “TR_FRET EKI BCLxL/WT selectivty ratio” value in [7] is 49.1. For the same molecule, the IC50 in experiment [8] is 0.0075 µM; in experiment [9] it was 0.0424 µM. Moreover, the “Ratio (G101V/WT)” value in experiment [9] was 6.03.

For the molecule `Cc1c(N(C(=O)c2cc(-c3cc4c(cc3C(=O)N3Cc5ccccc5C[C@H]3CN3CCCCC3)CN(C(=O)Cc3ccc(OCCN5CCOCC5)cc3F)CC4)n3ccccc23)c2ccc(O)cc2)cc(C#N)n1C` [Example 136, N-(5-cyano-1,2-dimethyl-pyrrol-3-yl)-3-[2-[2-[2-fluoro-4-(2-morpholinoethoxy)phenyl]acetyl]-7-[(3S)-3-(1-piperidylmethyl)-3,4-dihydro-1H-isoquinoline-2-carbonyl]-3,4-dihydro-1H-isoquinolin-6-yl]-N-(4-hydroxyphenyl)indolizine-1-carboxamide], the Ki in experiment [1] turned out to be 0.13 nM; in [2], 0.6 nM; in [4], 0.32 nM; in [5], 0.17 nM; in experiment [6], 0.35 nM; in experiment [7], 2.3 nM. Moreover, in [3], the “TR_FRET EKI G101V/WT selectivty ratio” value came out at 4.2. Besides, in experiment [7], the “TR_FRET EKI BCLxL/WT selectivty ratio” value worked out at 17.7. The IC50 in experiment [8] was 0.0037 µM; in experiment [9], 0.0118 µM. The “Ratio (G101V/WT)” value in experiment [9] worked out at 3.22.

Values taken from patent US20250179047A1, “5-[7-(3,4-DIHYDRO-1H-ISOQUINOLINE-2-CARBONYL)-1,2,3,4 TETRAHYDROISOQUINOLIN-6-YL]-1H-PYRROLE-3-CARBOXAMIDE DERIVATIVES, PHARMACEUTICAL COMPOSITIONS CONTAINING THEM AND THEIR USES AS PRO-APOPTOTIC AGENTS” (LES LABORATOIRES SERVIER, priority 2022, published 2025).
